From PubChem BioAssay AID1963432 (Molecular Pharmacology Branch, DTP, NCI, 2024)

System: SYO-1 complex spheroid growth, percent test/control
Test: Anticancer human tumor SYO-1 cell line growth inhibition [Asc];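 also: compound exposure lasted 7 days after spheroids grew 3 days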;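 as to viability, T/C: 100% = DMSO vehicle control viability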
Conditions: for IC50: curve of first compound; for viability, T/C: stronger effect = lower value
How it was run: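 Tumor cells were grown as complex spheroids with human endothelial cells (HUVEC) and human mesenchymal stem cells as stroma. Agents were tested alone and in combination, in half-log steps down from the clinical Cmax, or from 10 microM where Cmax was unknown.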

[1] = second compound 0.0316 µM, first compound 0.0316 µM
[2] = second compound 0.0316 µM, first compound 0.1 µM
[3] = second compound 0.0316 µM, first compound 0.316 µM
[4] = second compound 0.0316 µM, first compound 1 µM
[5] = second compound 0.1 µM, first compound 0.0316 µM
[6] = second compound 0.1 µM, first compound 0.1 µM
[7] = second compound 0.1 µM, first compound 0.316 µM
[8] = second compound 0.1 µM, first compound 1 µM
[9] = second compound 0.316 µM, first compound 0.0316 µM
[10] = second compound 0.316 µM, first compound 0.1 µM
[11] = second compound 0.316 µM, first compound 0.316 µM
[12] = second compound 0.316 µM, first compound 1 µM
[13] = second compound 1 µM, first compound 0.0316 µM
[14] = second compound 1 µM, first compound 0.1 µM
[15] = second compound 1 µM, first compound 0.316 µM
[16] = second compound 1 µM, first compound 1 µM
[17] = second compound 3.16 µM, first compound 0.0316 µM
[18] = second compound 3.16 µM, first compound 0.1 µM
[19] = second compound 3.16 µM, first compound 0.316 µM
[20] = second compound 3.16 µM, first compound 1 µM
[21] = second compound 10 µM, first compound 0.0316 µM
[22] = second compound 10 µM, first compound 0.1 µM
[23] = second compound 10 µM, first compound 0.316 µM
[24] = second compound 10 µM, first compound 1 µM

C=CC(=O)N1CCN(c2nc(=O)n(-c3c(C)ccnc3C(C)C)c3nc(-c4c(O)cccc4F)c(F)cc23)C(C)C1 (stereo unspecified) + Cc1c(S(C)(=O)=O)c(-c2cc(F)cc(N3CCN(c4ccc(NS(=O)(=O)c5ccc(NC(CCN6CCC(C(=O)OCCCP(=O)(O)O)CC6)CSc6ccccc6)c(S(=O)(=O)C(F)(F)F)c5)cc4)CC3)c2)c(-c2ccc(Cl)cc2)n1C(C)C
IC50 (second compound 0.0316 µM): > 10000 nM
IC50 (second compound 0.1 µM): > 10000 nM
IC50 (second compound 0.316 µM): > 10000 nM
IC50 (second compound 1 µM): > 10000 nM
IC50 (second compound 3.16 µM): > 10000 nM
IC50 (second compound 10 µM): > 10000 nM
viability, T/C [1]: 105%
viability, T/C [2]: 100%
viability, T/C [3]: 100%
viability, T/C [4]: 106%
viability, T/C (second compound 0.0316 µM, first compound 3.16 µM): 103%
viability, T/C (second compound 0.0316 µM, first compound 10 µM): 90.7%
viability, T/C [5]: 114%
viability, T/C [6]: 103%
viability, T/C [7]: 93.4%
viability, T/C [8]: 99.9%
viability, T/C (second compound 0.1 µM, first compound 3.16 µM): 99.7%
viability, T/C (second compound 0.1 µM, first compound 10 µM): 87%
viability, T/C [9]: 98.3%
viability, T/C [10]: 96.9%
viability, T/C [11]: 101%
viability, T/C [12]: 102%
viability, T/C (second compound 0.316 µM, first compound 3.16 µM): 88.3%
viability, T/C (second compound 0.316 µM, first compound 10 µM): 83.4%
viability, T/C [13]: 94.4%
viability, T/C [14]: 94%
viability, T/C [15]: 99.2%
viability, T/C [16]: 100%
viability, T/C (second compound 1 µM, first compound 3.16 µM): 90.7%
viability, T/C (second compound 1 µM, first compound 10 µM): 83.6%
viability, T/C [17]: 91.5%
viability, T/C [18]: 86.5%
viability, T/C [19]: 93.2%
viability, T/C [20]: 96.5%
viability, T/C (second compound 3.16 µM, first compound 3.16 µM): 87.9%
viability, T/C (second compound 3.16 µM, first compound 10 µM): 81%
viability, T/C [21]: 90%
viability, T/C [22]: 81.4%
viability, T/C [23]: 83.9%
viability, T/C [24]: 79.5%
viability, T/C (second compound 10 µM, first compound 3.16 µM): 89.9%
viability, T/C (second compound 10 µM, first compound 10 µM): 76.1%

CCN1C(C(=O)NC23CCC(C(=O)O)(CC2)CC3)C(c2cccc(Cl)c2F)C2(C(=O)Nc3cc(Cl)ccc32)C12CCCCC2 (stereo unspecified) + Cc1c(S(C)(=O)=O)c(-c2cc(F)cc(N3CCN(c4ccc(NS(=O)(=O)c5ccc(NC(CCN6CCC(C(=O)OCCCP(=O)(O)O)CC6)CSc6ccccc6)c(S(=O)(=O)C(F)(F)F)c5)cc4)CC3)c2)c(-c2ccc(Cl)cc2)n1C(C)C
IC50 (second compound 0.0316 µM): 131 nM
IC50 (second compound 0.1 µM): 127 nM
IC50 (second compound 0.316 µM): 90.6 nM
IC50 (second compound 1 µM): 64.8 nM
IC50 (second compound 3.16 µM): 44.3 nM
IC50 (second compound 10 µM): 35.7 nM
viability, T/C (second compound 0.0316 µM, first compound 0.00949 µM): 97.6%
viability, T/C (second compound 0.0316 µM, first compound 0.03 µM): 88.5%
viability, T/C (second compound 0.0316 µM, first compound 0.0949 µM): 65%
viability, T/C (second compound 0.0316 µM, first compound 0.3 µM): 13.6%
viability, T/C (second compound 0.0316 µM, first compound 0.949 µM): 2.07%
viability, T/C (second compound 0.0316 µM, first compound 3 µM): 0.87%
viability, T/C (second compound 0.1 µM, first compound 0.00949 µM): 91.7%
viability, T/C (second compound 0.1 µM, first compound 0.03 µM): 80.9%
viability, T/C (second compound 0.1 µM, first compound 0.0949 µM): 64.2%
viability, T/C (second compound 0.1 µM, first compound 0.3 µM): 10.4%
viability, T/C (second compound 0.1 µM, first compound 0.949 µM): 1.25%
viability, T/C (second compound 0.1 µM, first compound 3 µM): 0.54%
viability, T/C (second compound 0.316 µM, first compound 0.00949 µM): 86.6%
viability, T/C (second compound 0.316 µM, first compound 0.03 µM): 78.7%
viability, T/C (second compound 0.316 µM, first compound 0.0949 µM): 49.5%
viability, T/C (second compound 0.316 µM, first compound 0.3 µM): 4.49%
viability, T/C (second compound 0.316 µM, first compound 0.949 µM): 0.85%
viability, T/C (second compound 0.316 µM, first compound 3 µM): 0.62%
viability, T/C (second compound 1 µM, first compound 0.00949 µM): 87.4%
viability, T/C (second compound 1 µM, first compound 0.03 µM): 77.6%
viability, T/C (second compound 1 µM, first compound 0.0949 µM): 36.4%
viability, T/C (second compound 1 µM, first compound 0.3 µM): 4.69%
viability, T/C (second compound 1 µM, first compound 0.949 µM): 0.8%
viability, T/C (second compound 1 µM, first compound 3 µM): 0.39%
viability, T/C (second compound 3.16 µM, first compound 0.00949 µM): 77.5%
viability, T/C (second compound 3.16 µM, first compound 0.03 µM): 63.4%
viability, T/C (second compound 3.16 µM, first compound 0.0949 µM): 23.8%
viability, T/C (second compound 3.16 µM, first compound 0.3 µM): 2.4%
viability, T/C (second compound 3.16 µM, first compound 0.949 µM): 0.61%
viability, T/C (second compound 3.16 µM, first compound 3 µM): 0.43%
viability, T/C (second compound 10 µM, first compound 0.00949 µM): 75.9%
viability, T/C (second compound 10 µM, first compound 0.03 µM): 56.7%
viability, T/C (second compound 10 µM, first compound 0.0949 µM): 12.4%
viability, T/C (second compound 10 µM, first compound 0.3 µM): 2.09%
viability, T/C (second compound 10 µM, first compound 0.949 µM): 0.69%
viability, T/C (second compound 10 µM, first compound 3 µM): 0.46%

COc1c(OCCCN2CCOCC2)ccc2c3n(c(=NC(=O)c4cnc(N)nc4)nc12)CCN3 + Cc1c(S(C)(=O)=O)c(-c2cc(F)cc(N3CCN(c4ccc(NS(=O)(=O)c5ccc(NC(CCN6CCC(C(=O)OCCCP(=O)(O)O)CC6)CSc6ccccc6)c(S(=O)(=O)C(F)(F)F)c5)cc4)CC3)c2)c(-c2ccc(Cl)cc2)n1C(C)C
IC50 (second compound 0.0316 µM): 652 nM
IC50 (second compound 0.1 µM): 596 nM
IC50 (second compound 0.316 µM): 509 nM
IC50 (second compound 1 µM): 452 nM
IC50 (second compound 3.16 µM): 300 nM
IC50 (second compound 10 µM): 194 nM
viability, T/C (second compound 0.0316 µM, first compound 0.00316 µM): 104%
viability, T/C (second compound 0.0316 µM, first compound 0.01 µM): 93.8%
viability, T/C [1]: 93.5%
viability, T/C [2]: 83.1%
viability, T/C [3]: 74.6%
viability, T/C [4]: 36.4%
viability, T/C (second compound 0.1 µM, first compound 0.00316 µM): 99.2%
viability, T/C (second compound 0.1 µM, first compound 0.01 µM): 97%
viability, T/C [5]: 91.8%
viability, T/C [6]: 80.3%
viability, T/C [7]: 69.5%
viability, T/C [8]: 35.6%
viability, T/C (second compound 0.316 µM, first compound 0.00316 µM): 90.7%
viability, T/C (second compound 0.316 µM, first compound 0.01 µM): 98.3%
viability, T/C [9]: 94.1%
viability, T/C [10]: 82.4%
viability, T/C [11]: 65.8%
viability, T/C [12]: 28.5%
viability, T/C (second compound 1 µM, first compound 0.00316 µM): 91.5%
viability, T/C (second compound 1 µM, first compound 0.01 µM): 100%
viability, T/C [13]: 94.7%
viability, T/C [14]: 87.5%
viability, T/C [15]: 63.4%
viability, T/C [16]: 20.5%
viability, T/C (second compound 3.16 µM, first compound 0.00316 µM): 92.5%
viability, T/C (second compound 3.16 µM, first compound 0.01 µM): 91.1%
viability, T/C [17]: 92.3%
viability, T/C [18]: 78.1%
viability, T/C [19]: 49%
viability, T/C [20]: 11.6%
viability, T/C (second compound 10 µM, first compound 0.00316 µM): 83.2%
viability, T/C (second compound 10 µM, first compound 0.01 µM): 88.7%
viability, T/C [21]: 72.3%
viability, T/C [22]: 62%
viability, T/C [23]: 41.7%
viability, T/C [24]: 6.85%
